One test deals with infected target cells. Nature of the test: in vitro eradication assay, HIV-specific T cells co-cultured with infected target cells. As to conditions: in the presence of the latency reversing drug; FIG. 4. In kind it is cell-based. The source says:
The in vitro cell eradication assay presented in this Example was directed to determining if T pharmacytes can induce expression of HIV expression in latently infected cells and kill those cells. HIV-specific T cells and Cytomegalovirus (CMV)-specific T cells were co-cultured with infected target cells (and mock-infected target cells) without the addition of any exogenous cytokines.

Test [1] deals with B lymphoblastoid cell line (BLCL). The experiment in a line: lysis of BLCL by recombinant perforin (FSC/SSC flow cytometry). In kind it is cell-based. As to conditions: FIG. 12A. The protocol: The next series of experiments were designed to test the effects of different concentrations of recombinant perforin on lysis of a B lymphoblastoid cell line (BLCL). […] The cell populations with FSC/SSC characteristics of viable BLCL have been gated. 1 nM perforin appeared to be sufficient for clear cell lysis. To investigate whether perforin release from T cells is sufficient to trigger release of payload from nanoparticles conjugated to T cells, ICMV nanoparticles encapsulating Alexa-647-labeled OVA were treated with 1 nM perforin for 16 hours, or maintained as a no-treatment control. As a positive control for complete lysis, NPs were treated with 2% Triton X-100. Fluorescence was quantified at 647 nm absorbance and 695 nm emission.

In the case of “IL-15: cytokine used as latency reversing drug”, the “response of HIV-specific T cells to infected target cells” value in the test with infected target cells was “specifically respond to these infected target cells only in the presence of latency reversing drugs”.

B1: perforin: pore-forming protein, 67-kilodalton multidomain protein (protein, UniProt P14222 22-555, looked up)
Perforin-1: PCHTAARSECKRSHKFVPGAWLAGEGVDVTSLRRSGSFPVDTQRFLRPDGTCTLCENALQEGTLQRLPLALTNWRAQGSGCQRHVTRAKVSSTEAVARDAARSIRNDWKVGLDVTPKPTSNVHVSVAGSHSQAANFAAQKTHQDQYSFSTDTVECRFYSFHVVHTPPLHPDFKRALGDLPHHFNASTQPAYLRLISNYGTHFIRAVELGGRISALTALRTCELALEGLTDNEVEDCLTVEAQVNIGIHGSISAEAKACEEKKKKHKMTASFHQTYRERHSEVVGGHHTSINDLLFGIQAGPEQYSAWVNSLPGSPGLVDYTLEPLHVLLDSQDPRREALRRALSQYLTDRARWRDCSRPCPPGRQKSPRDPCQCVCHGSAVTTQDCCPRQRGLAQLEVTFIQAWGLWGDWFTATDAYVKLFFGGQELRTSTVWDNNNPIWSVRLDFGDVLLATGGPLRLQVWDQDSGRDDDLLGTCDQAPKSGSHEVRCNLNHGHLKFRYHARCLPHLGGGTCLDYVPQMLLGEPPGNRSGAVW
Consider B1, for which, in test [1], the “perforin concentration sufficient for clear cell lysis” value came to 1 nM.

Values taken from US9415070B2, “Methods and compositions for localized delivery of agents to virally infected cells and tissues” (Massachusetts Institute of Technology, priority 2012, dated 2016).
